We go through one molecule from US12459912B2 (priority 2020, dated 2025).

The target of test [1] is T1, 5-Hydroxytryptamine (Serotonin) Receptor 3A (5-HT3A) (Homo sapiens, UniProt P46098).
T1 construct: expressed in transfected cells
The test can be described thus: 5-HT3A/Ion Channel. It is filed as cell-based. Conditions: EC50 (μM).

The target of test [2] is HRH1 (Histamine Receptor H1) (Homo sapiens, UniProt P35367). Put plainly: cell-based.
The target in test [3] is CCKAR (Cholecystokinin Receptor A) (Homo sapiens, UniProt P32238). The test can be described thus: CCKAR/Calcium Flux. It is filed as cell-based. For orientation: Calcium assays in cells follow changes in intracellular calcium, usually with a dye or a luminescent sensor.
Sequence of CCKAR (Cholecystokinin Receptor A) (P32238 whole entry): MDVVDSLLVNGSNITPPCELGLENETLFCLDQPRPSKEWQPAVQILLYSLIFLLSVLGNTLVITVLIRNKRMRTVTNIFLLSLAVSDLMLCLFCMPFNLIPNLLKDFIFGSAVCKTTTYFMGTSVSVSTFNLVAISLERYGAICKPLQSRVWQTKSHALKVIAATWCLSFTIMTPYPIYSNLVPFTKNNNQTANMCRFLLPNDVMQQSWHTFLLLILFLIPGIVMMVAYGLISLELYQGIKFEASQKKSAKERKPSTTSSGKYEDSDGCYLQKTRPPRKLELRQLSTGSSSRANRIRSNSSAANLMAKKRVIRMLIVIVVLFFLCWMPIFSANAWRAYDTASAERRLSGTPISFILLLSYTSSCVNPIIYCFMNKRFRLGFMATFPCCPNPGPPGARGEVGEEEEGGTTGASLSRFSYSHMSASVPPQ
In test [4] the target is CHRM2 (Muscarinic acetylcholine Receptor M2) (Homo sapiens, UniProt P08172). Put plainly: CHRM2/cAMP. It counts as cell-based.
For test [5], the target named is OPRM1 (Opioid Receptor Mu) (Homo sapiens, UniProt P35372). Put plainly: cell-based.
Sequence of OPRM1 (Opioid Receptor Mu) (P35372 whole entry): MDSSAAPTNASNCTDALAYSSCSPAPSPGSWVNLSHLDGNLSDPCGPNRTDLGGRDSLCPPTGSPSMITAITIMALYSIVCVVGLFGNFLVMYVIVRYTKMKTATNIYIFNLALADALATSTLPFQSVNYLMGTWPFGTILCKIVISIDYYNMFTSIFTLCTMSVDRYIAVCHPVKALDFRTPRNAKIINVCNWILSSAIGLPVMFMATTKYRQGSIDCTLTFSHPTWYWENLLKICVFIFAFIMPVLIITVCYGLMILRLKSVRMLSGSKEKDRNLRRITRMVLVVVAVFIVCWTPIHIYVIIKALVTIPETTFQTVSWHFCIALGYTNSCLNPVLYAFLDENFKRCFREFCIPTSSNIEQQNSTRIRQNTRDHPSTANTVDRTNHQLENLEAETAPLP
The target of test [6] is T2, CAV1.2 (Voltage-gated L-type calcium channel) (Homo sapiens, UniProt Q13936).
T2 construct: expressed in transfected cells
Put plainly: CAV1.2/Ion Channel. It is filed as cell-based.

Test [7] addresses T3, NET (Norepinephrine transporter) (Homo sapiens, UniProt P23975).
T3 construct: expressed in transfected cells
The test can be described thus: NET/Transporter (fluorescent substrate uptake). It counts as cell-based.

For test [8], the target named is T4, AChE (Acetylcholinesterase) (Homo sapiens, UniProt P22303).
T4 construct: purchased R&D Systems
T4 sequence (P22303 32-614): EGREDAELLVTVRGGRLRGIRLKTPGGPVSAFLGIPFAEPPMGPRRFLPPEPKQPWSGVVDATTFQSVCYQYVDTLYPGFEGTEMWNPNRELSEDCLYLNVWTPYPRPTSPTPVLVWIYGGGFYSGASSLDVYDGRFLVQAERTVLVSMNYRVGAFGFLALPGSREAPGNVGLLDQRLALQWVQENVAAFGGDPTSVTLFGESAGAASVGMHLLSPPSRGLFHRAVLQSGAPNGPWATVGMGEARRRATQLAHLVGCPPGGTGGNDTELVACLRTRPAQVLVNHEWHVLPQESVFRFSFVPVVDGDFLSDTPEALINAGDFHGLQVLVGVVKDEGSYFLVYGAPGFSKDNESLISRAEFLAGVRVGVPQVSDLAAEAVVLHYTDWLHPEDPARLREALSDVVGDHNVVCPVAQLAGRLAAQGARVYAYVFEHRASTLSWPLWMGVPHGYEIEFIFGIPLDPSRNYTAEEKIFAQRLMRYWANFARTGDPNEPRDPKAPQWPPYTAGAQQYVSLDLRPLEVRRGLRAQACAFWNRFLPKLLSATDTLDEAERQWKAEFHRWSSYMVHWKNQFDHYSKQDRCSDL
The test can be described thus: AChE/Enzymatic. It is filed as biochemical.

In the next test the target is T5, COX1 (Cyclooxygenase 1) (Homo sapiens, UniProt P23219).
T5 construct: purchased BPS Bioscience
T5 sequence (P23219 24-599): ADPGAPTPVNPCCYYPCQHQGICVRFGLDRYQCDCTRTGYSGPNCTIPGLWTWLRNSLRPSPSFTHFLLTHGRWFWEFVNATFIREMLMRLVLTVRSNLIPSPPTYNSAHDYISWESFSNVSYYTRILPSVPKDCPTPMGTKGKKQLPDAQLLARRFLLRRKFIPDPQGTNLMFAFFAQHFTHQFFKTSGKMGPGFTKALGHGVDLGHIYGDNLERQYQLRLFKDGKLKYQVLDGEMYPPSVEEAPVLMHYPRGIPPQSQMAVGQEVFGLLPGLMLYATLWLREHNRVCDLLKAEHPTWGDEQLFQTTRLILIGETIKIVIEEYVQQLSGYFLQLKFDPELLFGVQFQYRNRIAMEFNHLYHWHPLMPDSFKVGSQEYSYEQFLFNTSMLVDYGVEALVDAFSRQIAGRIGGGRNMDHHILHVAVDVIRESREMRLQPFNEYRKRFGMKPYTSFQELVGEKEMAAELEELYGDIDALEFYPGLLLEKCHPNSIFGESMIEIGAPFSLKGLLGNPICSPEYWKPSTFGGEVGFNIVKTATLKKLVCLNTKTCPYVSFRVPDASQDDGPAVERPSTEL
Put plainly: COX1/Enzymatic. It is filed as biochemical.

A further test addresses T6, COX2 (Cyclooxygenase 2) (Homo sapiens, UniProt P35354).
T6 construct: purchased BPS Bioscience
The test can be described thus: COX2/Enzymatic. It counts as biochemical.

The target of test [9] is AR (Nuclear Hormone Androgen Receptor) (Homo sapiens, UniProt P10275). The test can be described thus: AR/NHR Nuclear Translocation. It counts as cell-based.
Sequence of AR (Nuclear Hormone Androgen Receptor) (P10275 whole entry): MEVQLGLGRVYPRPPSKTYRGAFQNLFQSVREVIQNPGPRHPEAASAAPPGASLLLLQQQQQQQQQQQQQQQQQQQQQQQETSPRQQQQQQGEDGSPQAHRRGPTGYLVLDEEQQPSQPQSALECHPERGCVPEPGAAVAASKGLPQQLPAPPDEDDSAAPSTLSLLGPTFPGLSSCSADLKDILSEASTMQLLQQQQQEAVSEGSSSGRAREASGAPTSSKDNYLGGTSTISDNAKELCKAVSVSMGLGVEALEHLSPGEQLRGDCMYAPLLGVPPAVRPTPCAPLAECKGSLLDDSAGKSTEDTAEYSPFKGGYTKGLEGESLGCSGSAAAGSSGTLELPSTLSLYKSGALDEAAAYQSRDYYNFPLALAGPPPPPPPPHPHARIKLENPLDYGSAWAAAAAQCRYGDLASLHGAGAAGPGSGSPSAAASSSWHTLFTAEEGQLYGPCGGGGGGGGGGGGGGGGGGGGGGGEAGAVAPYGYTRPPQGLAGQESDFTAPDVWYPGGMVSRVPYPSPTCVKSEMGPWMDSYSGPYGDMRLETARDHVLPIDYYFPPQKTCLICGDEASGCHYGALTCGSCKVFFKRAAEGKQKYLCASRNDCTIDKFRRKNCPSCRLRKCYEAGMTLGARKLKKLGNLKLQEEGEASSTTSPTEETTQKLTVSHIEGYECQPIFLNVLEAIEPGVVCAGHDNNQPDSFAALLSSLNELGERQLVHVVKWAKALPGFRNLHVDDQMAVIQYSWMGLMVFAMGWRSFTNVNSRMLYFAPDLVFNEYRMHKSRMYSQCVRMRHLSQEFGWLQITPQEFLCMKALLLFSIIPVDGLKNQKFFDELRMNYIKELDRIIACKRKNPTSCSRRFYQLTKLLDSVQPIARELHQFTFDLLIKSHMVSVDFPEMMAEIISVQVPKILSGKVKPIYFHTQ
Test [10] concerns the target T7, LCK (Lymphocyte Cell-Specific Protein-Tyrosine Kinase (Src family)) (Homo sapiens, UniProt P06239).
T7 construct: made in house; host or cells: E. coli BL21-derived host (T7 phage) or HEK-293
The test can be described thus: LCK/Binding (KINOMEscan).

T1 sequence (P46098 24-478): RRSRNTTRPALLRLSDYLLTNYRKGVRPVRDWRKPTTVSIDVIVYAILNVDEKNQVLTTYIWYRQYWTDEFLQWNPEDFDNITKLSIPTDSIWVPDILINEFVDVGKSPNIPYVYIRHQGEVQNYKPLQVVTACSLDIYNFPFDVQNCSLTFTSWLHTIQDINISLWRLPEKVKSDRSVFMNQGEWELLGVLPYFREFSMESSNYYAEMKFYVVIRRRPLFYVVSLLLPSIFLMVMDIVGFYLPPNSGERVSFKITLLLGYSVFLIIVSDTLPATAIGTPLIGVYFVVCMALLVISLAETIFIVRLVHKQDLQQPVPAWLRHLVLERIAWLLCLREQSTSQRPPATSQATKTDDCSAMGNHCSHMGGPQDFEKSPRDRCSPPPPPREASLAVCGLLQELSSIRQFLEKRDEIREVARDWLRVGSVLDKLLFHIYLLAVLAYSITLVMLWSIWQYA
T3 sequence (P23975 whole entry): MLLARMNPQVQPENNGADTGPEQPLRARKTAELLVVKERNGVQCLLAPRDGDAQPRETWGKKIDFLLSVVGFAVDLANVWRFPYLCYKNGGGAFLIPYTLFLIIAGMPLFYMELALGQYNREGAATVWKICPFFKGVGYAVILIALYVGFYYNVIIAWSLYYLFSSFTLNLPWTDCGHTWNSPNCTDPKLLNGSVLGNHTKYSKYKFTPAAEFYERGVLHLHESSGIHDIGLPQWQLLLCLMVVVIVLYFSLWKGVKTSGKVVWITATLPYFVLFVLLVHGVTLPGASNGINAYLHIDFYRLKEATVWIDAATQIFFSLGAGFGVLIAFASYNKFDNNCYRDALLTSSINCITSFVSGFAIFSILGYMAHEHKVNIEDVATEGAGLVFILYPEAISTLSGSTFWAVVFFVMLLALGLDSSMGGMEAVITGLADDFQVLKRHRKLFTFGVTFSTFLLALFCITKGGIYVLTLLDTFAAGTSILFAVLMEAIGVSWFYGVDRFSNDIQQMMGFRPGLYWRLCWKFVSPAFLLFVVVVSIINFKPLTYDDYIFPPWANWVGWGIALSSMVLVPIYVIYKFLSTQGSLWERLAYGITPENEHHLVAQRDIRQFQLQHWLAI
T6 sequence (P35354 18-604): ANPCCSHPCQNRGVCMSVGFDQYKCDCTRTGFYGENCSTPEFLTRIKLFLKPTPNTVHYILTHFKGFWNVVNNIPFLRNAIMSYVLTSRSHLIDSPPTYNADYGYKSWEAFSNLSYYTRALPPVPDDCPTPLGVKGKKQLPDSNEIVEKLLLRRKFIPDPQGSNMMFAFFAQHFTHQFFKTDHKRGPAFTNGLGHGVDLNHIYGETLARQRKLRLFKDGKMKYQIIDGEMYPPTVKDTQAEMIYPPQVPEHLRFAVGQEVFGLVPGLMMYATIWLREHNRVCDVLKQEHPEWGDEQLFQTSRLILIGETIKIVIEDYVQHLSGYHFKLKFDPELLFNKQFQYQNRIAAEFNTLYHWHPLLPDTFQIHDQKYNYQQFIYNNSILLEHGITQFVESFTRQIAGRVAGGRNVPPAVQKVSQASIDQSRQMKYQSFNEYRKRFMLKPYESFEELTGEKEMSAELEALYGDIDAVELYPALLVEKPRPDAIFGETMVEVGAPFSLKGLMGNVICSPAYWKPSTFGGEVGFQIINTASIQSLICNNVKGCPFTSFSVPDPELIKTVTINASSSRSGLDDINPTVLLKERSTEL

Regarding `CNC(C)Cc1ccc2ccsc2c1` (stereo not shown) [drawing 522], the concentration giving a half-maximal response (EC50) (commonly the concentration at which the effect is half-maximal) in test [1] (blocker) was 5.18 µM; in test [1] (opener), greater than 10 µM; in [2], greater than 10 µM; in test [3], greater than 10 µM; in [4], greater than 10 µM; in test [5] it was greater than 10 µM. For the same molecule, the EC50 in test [6] is greater than 10 µM; in test [7] it was 0.684 µM; in test [8] it was greater than 10 µM; at COX1 (Cyclooxygenase 1), greater than 10 µM; at COX2 (Cyclooxygenase 2), greater than 10 µM; in test [9] it was greater than 10 µM. In test [10], this molecule registered an EC50 greater than 10 µM.
